# Counter-ions that a name gives are not always drawn. Like-named read-outs stand apart in the source and are kept apart here.
# System: subjects undergoing diagnostic procedures and surgeries on or through the mucous membranes of the nasal cavities
# Description: Example 8 was a randomized, prospective, double-blind, multicenter, single-dose, placebo and dose-controlled, parallel-group study to evaluate the safety of the 4% and 8% cocaine hydrochloride pharmaceutical compositions as described in Example 4 used as a local anesthetic for diagnostic procedures and surgeries on or through the mucous membranes of the nasal cavities (e.g., nasal/sinus endoscopy, sinusotomy, fracture nasal turbinate(s), lysis intranasal synechia, insertion of nasal septal prosthesis, intranasal biopsy, excision of nasal polyps, excision turbinate(s), removal of an intranasal foreign body, septoplasty, or sinus debridement). […] The study consisted of a screening period within 14 days of a diagnostic procedure or surgery; a treatment period on the day of the diagnostic procedure or surgery (Day 1); and a follow-up visit (Day 8).
# Two saturated pledgets were placed into each nasal cavity and up against the septum for 20 minutes. After 20 minutes the pledgets were removed from the subjects.
# To address the potential for the impact of body weight on efficacy and safety, the study conducted the following additional analyses: • Analysis of efficacy (primary endpoint) for 2 subgroups of low weight subjects: <50 kg and <60 kg (see Table 53) • Analysis of safety (AEs) for 2 subgroups of low weight subjects: <50 kg and <60 kg (see Table 54) • Analysis of safety (AEs) for 2 subgroups of subjects based on dose determined on a mg/kg basis (regardless of 4% or 8% dose): ≤3 mg/kg or >3 mg/kg) (Table 55) Note: There is overlap between the body weight groups examined because the <60 kg group has no lower limit of weight.
smiles,measurement,setting,value
COC(=O)[C@H]1[C@@H](OC(=O)c2ccccc2)C[C@@H]2CC[C@H]1N2C [Cocaine HCl],Adverse events: Anxiety,>3% mg/kg,2 (0.8) n (%)
same,Adverse events: Dermatitis allergic,>3% mg/kg,1 (0.4) n (%)
same,Adverse events: Dizziness,>3% mg/kg,1 (0.4) n (%)
same,Adverse events: Dysphonia,>3% mg/kg,0 n (%)
same,Adverse events: Epistaxis,>3% mg/kg,2 (0.8) n (%)
same,Adverse events: Eye disorders,>3% mg/kg,1 (0.4) n (%)
same,Adverse events: Facial pain,>3% mg/kg,1 (0.4) n (%)
same,Adverse events: Fatigue,>3% mg/kg,0 n (%)
same,Adverse events: Foreign body sensation in eyes,>3% mg/kg,1 (0.4) n (%)
same,Adverse events: Gastrointestinal disorders,>3% mg/kg,1 (0.4) n (%)
same,Adverse events: General disorders and administration site conditions,>3% mg/kg,1 (0.4) n (%)
same,Adverse events: Headache,>3% mg/kg,4 (1.6) n (%)
same,Adverse events: Hypertension,>3% mg/kg,0 n (%)
same,"Adverse events: Injury, poisoning and procedural complications",>3% mg/kg,1 (0.4) n (%)
same,Adverse events: Lip swelling,>3% mg/kg,1 (0.4) n (%)
same,Adverse events: Masculoskeletal and connective tissue disorders,>3% mg/kg,1 (0.4) n (%)
same,Adverse events: Medication error,>3% mg/kg,1 (0.4) n (%)
same,Adverse events: Nasal congestion,>3% mg/kg,1 (0.4) n (%)
same,Adverse events: Nausea,>3% mg/kg,0 n (%)
same,Adverse events: Neck pain,>3% mg/kg,1 (0.4) n (%)
same,Adverse events: Nervous system disorders,>3% mg/kg,5 (2.0) n (%)
same,Adverse events: Psychiatric disorders,>3% mg/kg,2 (0.8) n (%)
same,"Adverse events: Respiratory, thoracic and mediastinal disorders",>3% mg/kg,3 (1.2) n (%)
same,Adverse events: Rhinorrhea,>3% mg/kg,0 n (%)
same,Adverse events: Skin and subcutaneous tissue disorders,>3% mg/kg,2 (0.8) n (%)
same,Adverse events: Sneezing,>3% mg/kg,0 n (%)
same,Adverse events: Upper-airway cough syndrome,>3% mg/kg,0 n (%)
same,Adverse events: Vascular disorders,>3% mg/kg,0 n (%)
same,Adverse events: Vision blurred,>3% mg/kg,0 n (%)
same,Any AE,>3% mg/kg,14 (5.7) n (%)
same,Adverse events: Cold sweat,">3% mg/kg, under General disorders and administration site conditions",0 n (%)
same,Adverse events: Cold sweat,">3% mg/kg, under Skin and subcutaneous tissue disorders",1 (0.4) n (%)
same,Adverse events: Anxiety,≤3 mg/kg,0 n (%)
same,Adverse events: Dermatitis allergic,≤3 mg/kg,0 n (%)
same,Adverse events: Dizziness,≤3 mg/kg,1 (0.3) n (%)
same,Adverse events: Dysphonia,≤3 mg/kg,1 (0.3) n (%)
same,Adverse events: Epistaxis,≤3 mg/kg,3 (1.0) n (%)
same,Adverse events: Eye disorders,≤3 mg/kg,1 (0.3) n (%)
same,Adverse events: Facial pain,≤3 mg/kg,0 n (%)
same,Adverse events: Fatigue,≤3 mg/kg,1 (0.3) n (%)
same,Adverse events: Foreign body sensation in eyes,≤3 mg/kg,0 n (%)
same,Adverse events: Gastrointestinal disorders,≤3 mg/kg,1 (0.3) n (%)
same,Adverse events: General disorders and administration site conditions,≤3 mg/kg,2 (0.7) n (%)
same,Adverse events: Headache,≤3 mg/kg,7 (2.3) n (%)
same,Adverse events: Hypertension,≤3 mg/kg,1 (0.3) n (%)
same,"Adverse events: Injury, poisoning and procedural complications",≤3 mg/kg,0 n (%)
same,Adverse events: Lip swelling,≤3 mg/kg,0 n (%)
same,Adverse events: Masculoskeletal and connective tissue disorders,≤3 mg/kg,0 n (%)
same,Adverse events: Medication error,≤3 mg/kg,0 n (%)
same,Adverse events: Nasal congestion,≤3 mg/kg,0 n (%)
same,Adverse events: Nausea,≤3 mg/kg,1 (0.3) n (%)
same,Adverse events: Neck pain,≤3 mg/kg,0 n (%)
same,Adverse events: Nervous system disorders,≤3 mg/kg,7 (2.3) n (%)
same,Adverse events: Psychiatric disorders,≤3 mg/kg,0 n (%)
same,"Adverse events: Respiratory, thoracic and mediastinal disorders",≤3 mg/kg,6 (2.0) n (%)
same,Adverse events: Rhinorrhea,≤3 mg/kg,1 (0.3) n (%)
same,Adverse events: Skin and subcutaneous tissue disorders,≤3 mg/kg,0 n (%)
same,Adverse events: Sneezing,≤3 mg/kg,1 (0.3) n (%)
same,Adverse events: Upper-airway cough syndrome,≤3 mg/kg,0 n (%)
same,Adverse events: Vascular disorders,≤3 mg/kg,1 (0.3) n (%)
same,Adverse events: Vision blurred,≤3 mg/kg,1 (0.3) n (%)
same,Any AE,≤3 mg/kg,13 (4.3) n (%)
same,Adverse events: Cold sweat,"≤3 mg/kg, under General disorders and administration site conditions",1 (0.3) n (%)
same,Adverse events: Cold sweat,"≤3 mg/kg, under Skin and subcutaneous tissue disorders",0 n (%)
